Experimental data reported in patent US9751854B2 (Millennium Pharmaceuticals, Inc., priority 2014, dated 2017).

target: human VPS34 (Homo sapiens (Human), UniProt Q8NEB9); test: Human VPS34 enzyme assay (Adapta TR-FRET ADP detection); format: biochemical; set-up: Percent Inhibition: dose or concentration left out as unconfirmed; conditions: not given
Sequence (Q8NEB9 whole entry): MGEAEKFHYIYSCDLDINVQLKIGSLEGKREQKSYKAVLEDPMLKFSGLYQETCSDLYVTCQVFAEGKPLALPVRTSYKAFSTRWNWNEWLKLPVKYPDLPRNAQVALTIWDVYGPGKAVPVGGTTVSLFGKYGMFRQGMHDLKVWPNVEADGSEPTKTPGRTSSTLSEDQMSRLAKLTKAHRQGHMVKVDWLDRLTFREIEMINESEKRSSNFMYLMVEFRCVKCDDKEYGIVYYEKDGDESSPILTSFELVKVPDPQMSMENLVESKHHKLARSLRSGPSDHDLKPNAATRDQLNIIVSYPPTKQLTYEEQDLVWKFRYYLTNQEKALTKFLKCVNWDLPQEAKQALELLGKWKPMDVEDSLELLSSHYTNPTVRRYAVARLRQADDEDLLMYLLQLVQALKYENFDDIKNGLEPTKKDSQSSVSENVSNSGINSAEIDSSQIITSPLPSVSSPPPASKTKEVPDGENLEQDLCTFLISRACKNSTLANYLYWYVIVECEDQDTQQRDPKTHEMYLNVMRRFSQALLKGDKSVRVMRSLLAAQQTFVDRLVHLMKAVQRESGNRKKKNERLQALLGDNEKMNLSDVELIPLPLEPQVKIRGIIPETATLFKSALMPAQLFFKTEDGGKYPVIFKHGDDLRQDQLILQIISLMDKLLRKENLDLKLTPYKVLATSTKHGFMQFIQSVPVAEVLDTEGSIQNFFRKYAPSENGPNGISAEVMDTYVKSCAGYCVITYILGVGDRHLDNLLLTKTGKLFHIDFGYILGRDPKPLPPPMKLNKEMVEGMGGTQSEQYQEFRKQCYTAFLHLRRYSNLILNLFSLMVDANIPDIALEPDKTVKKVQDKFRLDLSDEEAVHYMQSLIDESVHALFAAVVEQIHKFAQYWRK

Percent Inhibition [%] | SMILES
>99 | CC(=O)Nc1cc(-c2cnc(Cl)c(S(=O)(=O)N[C@H](CO)c3ccccc3)c2)ccn1 [Compound I-330, N-(6-chloro-5-{[(1S)-2-hydroxy-1-phenylethyl]sulfamoyl}-3,4′-bipyridin-2′-yl)acetamide]
100 | CC(=O)Nc1cc(-c2cc(N(C)S(C)(=O)=O)c(C)[n+]([O-])c2)ccn1 [Compound I-129, N-(4-{6-methyl-5-[methyl(methylsulfonyl)amino]-1-oxidopyridin-3-yl}pyridin-2-yl)acetamide]

same assay, conditions: IC50 range class

SMILES | IC50 [nM]
CC(=O)Nc1cc(-c2cncc(N(CC3CC3)S(C)(=O)=O)c2)ccn1 [Compound I-202, N-{5-[(cyclopropylmethyl)(methylsulfonyl)amino]-3,4′-bipyridin-2′-yl}acetamide] | 50 to 100
CC(=O)Nc1cc(-c2cncc(S(=O)(=O)NC34CC(C3)C4)c2)ccn1 [Compound I-190, N-[5-(bicyclo[1.1.1]pent-1-ylsulfamoyl)-3,4′-bipyridin-2′-yl]acetamide] | 10 to 50
COc1ncc(-c2ccnc(Nc3ccnc(C)n3)c2)cc1C(=O)N(C)c1ccc(F)cc1F [Compound I-252, N-(2,4-difluorophenyl)-6-methoxy-N-methyl-2′-[(2-methylpyrimidin-4-yl)amino]-3,4′-bipyridine-5-carboxamide] | 10 to 50
COC(=O)Nc1cc(-c2cnc3[nH]ncc3c2)ccn1 [Compound I-38, Methyl [4-(1H-pyrazolo[3,4-b]pyridin-5-yl)pyridin-2-yl]carbamate] | 10 to 50
Cc1ncc(-c2ccnc(Nc3ccc(C#N)cn3)c2)cc1NS(=O)(=O)c1ccc(F)cc1F [Compound I-228, N-{2′-[(5-cyanopyridin-2-yl)amino]-6-methyl-3,4′-bipyridin-5-yl}-2,4-difluorobenzenesulfonamide] | < 10
CC(=O)Nc1cc(-c2cc(N(C)S(C)(=O)=O)c(C)[n+]([O-])c2)ccn1 [Compound I-129, N-(4-{6-methyl-5-[methyl(methylsulfonyl)amino]-1-oxidopyridin-3-yl}pyridin-2-yl)acetamide] | > 100
CC(=O)Nc1cc(-c2cnc(N)c(C(=O)N3CCC3)c2)ccn1 [Compound I-200, N-[6-amino-5-(azetidin-1-ylcarbonyl)-3,4′-bipyridin-2′-yl]acetamide] | < 10
COc1ncc(-c2ccnc(NC(C)=O)c2)cc1C(=O)N(C)C [Compound I-127, 2′-acetamido-6-methoxy-N,N-dimethyl-3,4′-bipyridine-5-carboxamide] | 50 to 100
Cc1ncc(-c2ccnc(NC(=O)C3CCC3)c2)cc1NS(=O)(=O)c1ccc(F)cc1F [Compound I-305, N-(5-{[(2,4-difluorophenyl)sulfonyl]amino}-6-methyl-3,4′-bipyridin-2′-yl)cyclobutanecarboxamide] | 10 to 50
CC(=O)Nc1cc(-c2cnc(N(C)C)c(C(=O)N(C)C)c2)ccn1 [Compound I-162, 2′-acetamido-6-(dimethylamino)-N,N-dimethyl-3,4′-bipyridine-5-carboxamide] | 10 to 50
CC(=O)Nc1cc(-c2cnc(N)c(N3CCCN(C)S3(=O)=O)c2)ccn1 [Compound I-323, N-[6-amino-5-(6-methyl-1,1-dioxido-1,2,6-thiadiazinan-2-yl)-3,4′-bipyridin-2′-yl]acetamide] | 10 to 50
CC(=O)Nc1cc(-c2cnc(C)c(NS(=O)(=O)c3ccc(C)cc3F)c2)ccn1 [Compound I-182, N-(5-{[(2-fluoro-4-methylphenyl)sulfonyl]amino}-6-methyl-3,4′-bipyridin-2′-yl)acetamide] | < 10
CC(=O)Nc1cc(-c2cnc(F)c(NS(=O)(=O)c3ccc(F)cc3F)c2)ccn1 [Compound I-164, N-(5-{[(2,4-difluorophenyl)sulfonyl]amino}-6-fluoro-3,4′-bipyridin-2′-yl)acetamide] | < 10
CC(=O)Nc1cc(-c2cnc3c(c2)S(=O)(=O)N(C)CN3)ccn1 [Compound I-21, N-[4-(2-methyl-1,1-dioxido-3,4-dihydro-2H-pyrido[2,3-e][1,2,4]thiadiazin-7-yl)pyridin-2-yl]acetamide] | 10 to 50
CC(=O)Nc1cc(-c2cnc(N)c(S(=O)(=O)NCC3CCCCC3)c2)ccn1 [Compound I-183, N-{6-amino-5-[(cyclohexylmethyl)sulfamoyl]-3,4′-bipyridin-2′-yl}acetamide] | < 10
Cc1ncc(-c2ccnc(NC(=O)C3CC3(F)F)c2)cc1NS(=O)(=O)c1ccc(F)cc1F (single isomer, unassigned) [Compound I-267a, N-(5-{[(2,4-difluorophenyl)sulfonyl]amino}-6-methyl-3,4′-bipyridin-2′-yl)-2,2-difluorocyclopropanecarboxamide] | 10 to 50
CC(=O)Nc1cc(-c2cnc(C)c(NS(=O)(=O)c3cccc4ccccc34)c2)ccn1 [Compound I-78, N-[6-methyl-5-[(1-naphthylsulfonyl)amino]-3,4′-bipyridin-2′-yl}acetamide] | < 10
Cc1nc(Nc2cc(-c3cnc(C)c(NS(=O)(=O)N(C)C)c3)ccn2)ccc1C#N [Compound I-229, N-{2′-[(5-cyano-6-methylpyridin-2-yl)amino]-6-methyl-3,4′-bipyridin-5-yl}-N,N-dimethylsulfuric diamide] | < 10
CC(=O)Nc1cc(-c2cnc(N)c(S(=O)(=O)Cc3ccccc3F)c2)ccn1 [Compound I-197, N-{6-amino-5-[(2-fluorobenzyl)sulfonyl]-3,4′-bipyridin-2′-yl]acetamide] | 10 to 50
CCN(CC)S(=O)(=O)c1cc(-c2ccnc(NC(C)=O)c2)cnc1N [Compound I-124, N-[6-amino-5-(diethylsulfamoyl)-3,4′-bipyridin-2′-yl]acetamide] | < 10
COc1cccc(S(=O)(=O)Nc2cc(-c3ccnc(NC(C)=O)c3)cnc2C)c1 [Compound I-123, N-(5-{[(3-methoxyphenyl)sulfonyl]amino}-6-methyl-3,4′-bipyridin-2′-yl}acetamide] | < 10
Nc1cncc(-c2ccnc(N)c2)c1 [Compound I-231, 3,4′-bipyridine-2′,5-diamine] | > 100
CC(=O)Nc1cc(-c2cnc(N)c(S(=O)(=O)NC34CC(C3)C4)c2)ccn1 [Compound I-11, N-[6-amino-5-(bicyclo[1.1.1]pent-1-ylsulfamoyl)-3,4′-bipyridin-2′-yl]acetamide] | < 10
O=C(Nc1cc(-c2cnc3[nH]ncc3c2)ccn1)C1CC1 [Compound I-117, N-[4-(1H-pyrazolo[3,4-b]pyridin-5-yl)pyridin-2-yl]cyclopropanecarboxamide] | 10 to 50
CC(=O)Nc1cc(-c2cnc(N)c(C(=O)N3CCOCC3)c2)ccn1 [Compound I-152, N-[6-amino-5-(morpholin-4-ylcarbonyl)-3,4′-bipyridin-2′-yl]acetamide] | 10 to 50
COC(=O)Nc1cc(-c2cnc3ccn(CC4CC4)c3c2)ccn1 [Compound I-42, Methyl {4-[1-(cyclopropylmethyl)-1H-pyrrolo[3,2-b]pyridin-6-yl]pyridin-2-yl}carbamate] | 10 to 50
CC(=O)Nc1cc(-c2cnc(C)c(N(CC3CC3)S(=O)(=O)C3CC3)c2)ccn1 [Compound I-83, N-{5-[(cyclopropylmethyl)(cyclopropylsulfonyl)amino]-6-methyl-3,4′-bipyridin-2′-yl}acetamide] | > 100

More lines, now with the values ahead:

IC50 [nM] | SMILES
10 to 50 | Cc1c(-c2ccnc(Nc3ccnc(C4CC4)n3)c2)cnc(Cl)c1C(=O)N1CCC1 [Compound I-361, azetidin-1-yl(6-chloro-2′-((2-cyclopropylpyrimidin-4-yl)amino)-4-methyl-[3,4′-bipyridin]-5-yl)methanone]
> 100 | CC(=O)Nc1cc(-c2cnc(Cl)c(S(=O)(=O)N[C@H](CO)c3ccccc3)c2)ccn1 [Compound I-330, N-(6-chloro-5-{[(1S)-2-hydroxy-1-phenylethyl]sulfamoyl}-3,4′-bipyridin-2′-yl)acetamide]
10 to 50 | CC(=O)Nc1cc(-c2cncc(S(=O)(=O)NC(C)(C)C)c2)ccn1 [Compound I-443, N-[5-(tert-butylsulfamoyl)-3,4′-bipyridin-2′-yl]acetamide]
10 to 50 | Cc1ncc(-c2ccnc(Nc3ccnc(C4CC4)n3)c2)cc1NC(=O)N1CC(F)(F)C1 [Compound I-368, N-(2′-((2-cyclopropylpyrimidin-4-yl)amino)-6-methyl-[3,4′-bipyridin]-5-yl)-3,3-difluoroazetidine-1-carboxamide]
10 to 50 | Cc1nccc(Nc2cc(-c3cnc(C)c(C(=O)N4CC(C)(C)C4)c3)ccn2)n1 [Compound I-495, (3,3-dimethylazetidin-1-yl){6-methyl-2′-[(2-methylpyrimidin-4-yl)amino]-3,4′-bipyridin-5-yl}methanone]
10 to 50 | CC(=O)Nc1cc(-c2ccnc(Nc3ccnc(C)n3)c2)cn2nccc12 [Compound I-450, N-(6-{2-[(2-methylpyrimidin-4-yl)amino]pyridin-4-yl}pyrazolo[1,5-a]pyridin-4-yl)acetamide]
10 to 50 | CC(=O)Nc1cc(-c2cnc(Cl)c(S(=O)(=O)NC3CCC3)c2)ccn1 [Compound I-438, N-[6-chloro-5-(cyclobutylsulfamoyl)-3,4′-bipyridin-2′-yl]acetamide]
10 to 50 | Cc1ccc(Oc2cc(-c3ccnc(Nc4ccnc(C)n4)c3)cnc2C)nc1 [Compound I-390, 6-methyl-5-[(5-methylpyridin-2-yl)oxy]-N-(2-methylpyrimidin-4-yl)-3,4′-bipyridin-2′-amine]
< 10 | Cc1ncc(-c2ccnc(NC(=O)OCc3ccn(C)n3)c2)cc1NS(=O)(=O)c1ccc(F)cc1F [Compound I-326, (1-methyl-1H-pyrazol-3-yl)methyl (5-{[(2,4-difluorophenyl)sulfonyl]amino}-6-methyl-3,4′-bipyridin-2′-yl)carbamate]
< 10 | Cc1nccc(Nc2cc(-c3c[n+]([O-])c(Cl)c(NS(=O)(=O)c4ccc(F)cc4F)c3C)ccn2)n1 [Compound I-454, N-(2-chloro-4-methyl-5-{2-[(2-methylpyrimidin-4-yl)amino)pyridin-4-yl}-1-oxidopyridin-3-yl)-2,4-difluorobenzenesulfonamide]
10 to 50 | CC(=O)Nc1cc(-c2cnc(Cl)c(NS(=O)(=O)c3cccc4ncccc34)c2C)ccn1 [Compound I-437, N-{6-chloro-4-methyl-5-[(quinolin-5-ylsulfonyl)amino]-3,4′-bipyridin-2′-yl}acetamide]
10 to 50 | CC(=O)Nc1cc(-c2cc(NS(=O)(=O)c3ccc(F)cc3F)c3ncnn3c2)ccn1 [Compound I-340, N-[4-(8-{[(2,4-difluorophenyl)sulfonyl]amino}[1,2,4]triazolo[1,5-a]pyridin-6-yl)pyridin-2-yl]acetamide]
> 100 | CC(=O)Nc1cc(-c2cnc(C)c(Nc3nc4ccccc4o3)c2)ccn1 [Compound I-392, N-[5-(1,3-benzoxazol-2-ylamino)-6-methyl-3,4′-bipyridin-2′-yl]acetamide]
